According to patent publication US20090202519A1, “Compositions and methods for treating gram positive bacterial infection in a mammalian subject” (The Scripps Research Institute, priority 2005, published 2009):
In brackets after ≈: the same amount, converted by molar mass.

How the values were obtained:
S. pyogenes = assay: microbe, parasite or virus in culture; conditions: for bacteriostatic and bactericidal activity: S. pyogenes, in vitro; for MBC / MIC: Streptococcus pyogenes; for MBC: read-out: MBC (Minimum Bactericidal Concentration); for MIC: read-out: MIC (Minimum Inhibitory Concentration)
Experimental: (§1) Miller et al., Arch Dermatol 124:209-15, 1988; Wille and Kydonieus, Skin Pharmacol Appl Skin Physiol 16:176-87, 2003. To test the working hypothesis, a series of in vitro experiments were first performed in which the effect of each lipid was measured on the growth of S. pyogenes, S. aureus and E. coli.
(§2) Bacteria. S. aureus Xen8.1 (parental strain 8325-4), S. pyogenes Xen20 (derived from serotype M49, strain 591) and E. coli Xen14 (derived from EPEC WS2572) were obtained from Xenogen (Carnbury, N.J.)

S. aureus [1] = assay: Minimum inhibitory and bactericidal concentration on S. aureus in vitro; format: cell-based, Staphylococcus aureus; conditions: for bacteriostatic and bactericidal activity: in vitro
Experimental: as §1, §2

S. aureus [2] = assay: S. aureus skin infection in wild-type (C57BL/6) mice, luminescence and wound size; format: in vivo, mouse
Experimental: To investigate the physiological relevance of this antimicrobial activity, wild-type mice were inoculated with S. aureus and treated the infected animals by repeated (every two days) subcutaneous injections of palmitoleate (100 μl of a 100 μM solution in DMSO), or DMSO alone at the site of infection. The results of this experiment are illustrated in FIGS. 6A and B. For both groups of mice (n=6 animals), luminescence is expressed as a percentage of the initial inoculum, determined 24 hours after infection. […] As a consequence of improved S. aureus elimination, the diameter of the ulcerative wound (measured at day 9) in lipid-treated animals is one fourth that observed in controls (FIG. 6C).
A. Palmitoleate injection accelerates bacterial clearance in wild-type mice. Luminescence (expressed as a percentage of the initial inoculum) was measured in control (C57BL/6) mice inoculated with S. aureus (at day 0) and treated by vehicle (DMSO) or palmitoleate injections every two days (arrows). […] Histogram showing the size of the lesion measured at day 9 after the infection in control (B6) mice treated with DMSO or palmitoleate. ** indicates P value <0.01. […] F. Size of the lesion (determined at day 12) in infected flk mutants treated with DMSO or palmitoleate. * indicates P value <0.05. […]

S. aureus [3] = assay: S. aureus skin infection in flake (flk/flk) mutant mice; format: in vivo, mouse; conditions: flake mutants; 100 μl of 100 μM every two days
Experimental: However, complete rescue of the phenotype was not achieved by this pharmacological approach.
A. Palmitoleate injection accelerates bacterial clearance in wild-type mice. Luminescence (expressed as a percentage of the initial inoculum) was measured in control (C57BL/6) mice inoculated with S. aureus (at day 0) and treated by vehicle (DMSO) or palmitoleate injections every two days (arrows). B. Picture of control (C57BL/6) mice 9 days after S. aureus infection treated by DMSO (top) or palmitoleate (bottom) injections. C. Histogram showing the size of the lesion measured at day 9 after the infection in control (B6) mice treated with DMSO or palmitoleate. ** indicates P value <0.01. D. Palmitoleate treatment in S. aureus-infected flake mice. The protocol is similar as in A, except that 100 μl injections of a 75 mM solution of palmitoleate were performed. E. Pictures of infected flake mice at day 12 after DMSO (top) or palmitoleate (bottom) treatment. F. Size of the lesion (determined at day 12) in infected flk mutants treated with DMSO or palmitoleate. * indicates P value <0.05.
Skin infection. […] Luminescence was monitored daily with a CCD camera (5 min exposure of the animals) and quantification was done with the IVIS program from Xenogen.

[4] = system: Scd1 expression in peritoneal macrophages; assay: Scd1 expression by RT-PCR in stimulated peritoneal macrophages; format: cell-based; conditions: wild-type mouse peritoneal macrophages, within 18 hours after stimulation
Source text: A. SignalScan analysis of the Scd1 promoter. NF-κB and ISRE (interferon-stimulated regulatory element) are shown. B. RT-PCR detection of Scd1 and β-actin transcripts in skin biopsies of non-infected controls (C57BL/6, lane 1) and Tlr2−/− (lane 4) animals or after infection by S. aureus (lanes 2 and 5) or E. coli (lane 3). PCR products after 30 and 40 cycles are shown. M, size standard. C. RT-PCR detection of Scd1 and β-actin transcripts in controls (0) and MALP-induced peritoneal macrophages isolated from wild-type mice after 2, 4, 8 and 18 h. D. Quantification of the Scd1/β-actin ratio.
Macrophages, which represent an ideal system in which to study TLR signaling, also express the Scd1 gene, as reported recently. Uryu et al., Biochem Biophys Res Commun 303:302-5, 2003. To determine whether isolated macrophages are capable of upregulating Scd1 and to determine the kinetics of the response, peritoneal macrophages isolated from wild-type mice were stimulated with, synthetic macrophage-activating lipopeptide (MALP-2, EMC microcollections GmbH, Germany), a known TLR2 agonist. Takeuchi et al., J Immunol 164:554-7, 2000. […]
Semi-quantitative RT-PCR. […] Hoebe et al., J Endotoxin Res 9:250-5, 2003. hSCD1 and hFADS2 expression SZ95 sebocytes was measured by semi-quantitative RT-PCR using the following oligonucleotides: […]

SZ95 sebocytes = assay: SZ95 human sebocytes: IL-6/IL-8 ELISA and SCD1/FADS2 RT-PCR; format: cell-based; conditions: SZ95 cells
Source text: To corroborate potential relevance of inducible Scd1 expression in human skin defense against Gram-positive pathogens, the effect of MALP-2 was investigated on the immortalized human sebocyte cell line SZ95. Zouboulis et al., J. Invest Dermatol. 113:1011-1020, 1999. […] These observations were extended by monitoring the expression of the fatty acid desaturase2 (FADS2) gene. FADS2 encodes a protein with enzymatic properties similar to those of SCD1 and was recently shown to be deficient in a patient affected by a severe skin condition manifested by cheilosis, a hyperkeratotic rash over the arms and legs and perineal dermatitis. Williard et al., J. Lipid Res. 42:501-508, 2001.
A. IL-6 production is induced in SZ95 cells after MALP-2 treatment (50 ng/ml). […] B. Quantification of IL-8 in the same conditions as in A. C. RT-PCR detection of SCD1 and FADS2 expression 4 and 18 hours after LPS and MALP-2 stimulation. GAPDH expression was used as control. D. Quantification of the SCD1 and FADS2 signals measured in two independent experiments (+/− s.e.m) after normalization with the GAPDH signal.
Cell culture. SZ95 sebocytes were maintained in HSG-Med (Sebomed, Berlin, Germany) supplemented with 10% heat inactivated FCS, 5 ng/ml human epidermal growth factor, 1 mM CaCl2, 10^−5 M palmitic acid, 50 μg/ml gentamicin for 2, 4, 8 and 18 hours with/without 50 ng/ml MALP-2 or 100 ng/ml LPS and the supernatants were collected for IL6 and IL8 evaluation by ELISA. RNA was isolated from the 4- and 18-hour samples by the RNeasy Midi kit (Qiagen, Hilden, Germany) and purified by the RNase-Free DNase set (Qiagen) for RT-PCR.
Semi-quantitative RT-PCR. Wild-type and Tlr2^−/− mutant mice were depilated and infected by subcutaneous injection of S. aureus or E. coli (5×10^5 […]). After 24 h, the skin of the infected area was dissected and total RNA was extracted by the Trizol (Gibco) method. […] Hoebe et al., J Endotoxin Res 9:250-5, 2003. hSCD1 and hFADS2 expression SZ95 sebocytes was measured by semi-quantitative RT-PCR using the following oligonucleotides: […]

[5] = Staphylococcus aureus, average of 3 experiments

Compound	bacteriostatic and bactericidal activity (S. pyogenes)	MBC (S. pyogenes)	MIC (S. pyogenes)	MIC (S. aureus [1]; [5])	bacteriostatic and bactericidal activity (S. aureus [1])	MBC (S. aureus [1]; [5])	reduction of luminescence compared to vehicle-treated mice (S. aureus [2]; 9 days after S. aureus inoculation, s.c. 100 μl of 100 μM in DMSO every two days)	diameter of the ulcerative wound relative to controls (S. aureus [2]; measured at day 9, s.c. 100 μl of 100 μM every two days)	bacterial growth (S. aureus [3])	increase of Scd1 expression [4]	SCD1 transcription (SZ95 sebocytes; 4 hours after stimulation)	FADS2 expression (SZ95 sebocytes; 18 hours after stimulation)	IL-6 and IL-8 production (SZ95 sebocytes; MALP-2 50 ng/ml, LPS 100 ng/ml)
CCCCCCCC/C=C\CCCCCCCC(=O)O [Oleate, oleic acid]	strong bacteriostatic and bactericidal activity	13.3 µM (≈ 3.76 µg/mL)	8.3 µM (≈ 2.34 µg/mL)	> 75 µM	strong bacteriostatic and bactericidal activity	–	–	–	–	–	–	–	–
CCCCCC/C=C\CCCCCCCC(=O)O [Palmitoleate, palmitoleic acid]	strong bacteriostatic and bactericidal activity	10 µM (≈ 2.54 µg/mL)	10 µM (≈ 2.54 µg/mL)	36.6 µM (≈ 9.31 µg/mL)	strong bacteriostatic and bactericidal activity	50 µM (≈ 12.7 µg/mL)	90%	one fourth	marked reduction of bacterial growth between days 1 and 4	–	–	–	–
MALP-2	–	–	–	–	–	–	–	–	–	4 fold	up-regulated	slightly but specifically induced	increased IL-6 and IL-8 production
